The source made the active and inactive calls. The calls are words filed in the database; no cut-off is given here.
How the values were obtained:
[1] = Induction of Ptx-mediated cell cycle arrest in human KBV cells assessed as accumulation of cells at S phase at 5 uM incubated for 24 hrs in presence of paclitaxel by flow cytometry analysis (Rvb =16.63 +/- 0.4%); format: functional
[2] = Induction of Ptx-mediated cell cycle arrest in human KBV cells assessed as accumulation of cells at S phase at 10 uM incubated for 24 hrs in presence of paclitaxel by flow cytometry analysis (Rvb =16.63 +/- 0.4%); format: functional
KBV = test: Chemo-sensitizing activity against Ptx-resistance human KBV cells xenografted in BALB/c mouse assessed as inhibition of tumor growth at 20 mg/kg,ip measured after 23 days; format: functional, organism-based; conditions: time 23.0 day
[3] = target: T1, ATP-dependent translocase ABCB1 (Homo sapiens, UniProt P08183); test: Negative allosteric modulator activity at P-glycoprotein in human KBV cells assessed as effect on P-gp protein localization at 10 uM incubated for 48 hrs by immunofluorescence analysis; format: cell-based
P-gp (ABCB1) ATPase [4] = target: T2, P-gp (ABCB1) ATPase (Homo sapiens, UniProt P08183); test: Negative allosteric modulator activity at human P-gp ATP synthase hydrolytic activity assessed as inhibition of basal Pgp-ATPase activity incubated for 60 mins in presence of ATP by Glo-luminescence based microplate reader assay relative to DMSO
[5] = Induction of Ptx-mediated cell cycle arrest in human KBV cells assessed as accumulation of cells at Sub-G1 phase at 10 uM incubated for 24 hrs in presence of paclitaxel by flow cytometry analysis (reference value: 1.21 +/- 0.3%); format: functional
P-gp (ABCB1) ATPase [6] = target: T2, P-gp (ABCB1) ATPase; test: Negative allosteric modulator activity at human P-gp ATP synthase hydrolytic activity assessed as inhibition of Vrp-stimulated Pgp-ATPase activity incubated for 60 mins in presence of ATP by Glo-luminescence based microplate reader assay relative to DMSO; conditions: probe Vrp (stimulator of the ATPase activity)
[7] = target: T1, ATP-dependent translocase ABCB1; test: Binding affinity to P-glycoprotein in human KBV cells assessed as stabilization of P-glycoprotein at 50 uM incubated for 26 hrs by western blot based cellular thermal shift assay; format: cell-based
[8] = target: T1, ATP-dependent translocase ABCB1; test: Negative allosteric modulator activity at P-glycoprotein mediated Rhodamine-123 efflux in human KBV cells assessed as increase in intracellular Rhodamine-123 accumulation incubated for 2 hrs by flow cytometry analysis; format: cell-based
[9] = Induction of Ptx-mediated cell cycle arrest in human KBV cells assessed as accumulation of cells at G1-G0 phase at 10 uM incubated for 24 hrs in presence of paclitaxel by flow cytometry analysis (Rvb =57.76 +/- 0.78%); format: functional
[10] = Induction of cell cycle arrest in human KBV cells assessed as accumulation of cells at S phase at 10 uM incubated for 24 hrs by flow cytometry analysis (reference value: 12.42 +/- 0.41%); format: functional
[11] = Induction of cell cycle arrest in human KBV cells assessed as accumulation of cells at G2-M phase at 5 uM incubated for 24 hrs by flow cytometry analysis (reference value: 24.94 +/- 0.21%); format: functional
[12] = target: T1, ATP-dependent translocase ABCB1; test: Negative allosteric modulator activity at human P-gp ATP synthase hydrolytic activity assessed as inhibition of basal Pgp-ATPase activity at 0.5 mM incubated for 60 mins in presence of ATP by Glo-luminescence based microplate reader assay; conditions: 1 h, 500 µM
[13] = Induction of cell cycle arrest in human KBV cells assessed as accumulation of cells at G1-G0 phase at 5 uM incubated for 24 hrs by flow cytometry analysis (reference value: 62.34 +/- 0.24%); format: functional
[14] = Reversal of multidrug resistance in human KBV Cells assessed as increase in PTX-induced cytotoxicity by measuring cell survival rate at 5 uM incubated for 72 hrs in presence of paclitaxel by MTT assay relative to control; format: functional; conditions: read-out: Survival
[15] = Reversal of multidrug resistance in human KBV Cells assessed as reversal fold of paclitaxel IC50 at 5 uM incubated for 72 hrs in presence of paclitaxel by MTT assay; format: functional
[16] = Induction of cell cycle arrest in human KBV cells assessed as accumulation of cells at G2-M phase at 10 uM incubated for 24 hrs by flow cytometry analysis (reference value: 24.94 +/- 0.21%); format: functional
[17] = Induction of Ptx-mediated cell cycle arrest in human KBV cells assessed as accumulation of cells at Sub-G1 phase at 5 uM incubated for 24 hrs in presence of paclitaxel by flow cytometry analysis (reference value: 1.21 +/- 0.3%); format: functional
[18] = Chemo-sensitizing activity against Ptx-resistance human KBV cells xenografted in BALB/c mouse assessed as inhibition of tumor growth at 20 mg/kg,ip pre-treated with paclitaxel measured after 23 days; format: functional; conditions: 552 h, time 23 day
[19] = Reversal of multidrug resistance in human KBV Cells assessed as increase in PTX-induced cytotoxicity by measuring cell survival rate at 10 uM incubated for 72 hrs in presence of paclitaxel by MTT assay relative to control; format: functional; conditions: read-out: Survival
[20] = target: T1, ATP-dependent translocase ABCB1; test: Negative allosteric modulator activity at P-glycoprotein mediated Rhodamine-123 efflux in human KBV cells assessed as increase in intracellular Rhodamine-123 accumulation at 10 uM incubated for 2 hrs in presence of Ptx-C by flow cytometry analysis; format: cell-based
[21] = Induction of Ptx-mediated cell cycle arrest in human KBV cells assessed as accumulation of cells at G2-M phase at 10 uM incubated for 24 hrs in presence of paclitaxel by flow cytometry analysis (Rvb =25.34 +/- 0.92%); format: functional
[22] = Drug accumulation in human KBV cells at 10 uM incubated for 4 hrs by LC-MS/MS analysis; format: ADME, cell-based
[23] = Induction of cell cycle arrest in human KBV cells assessed as accumulation of cells at Sub-G1 phase at 10 uM incubated for 24 hrs by flow cytometry analysis (reference value: 1.24 +/- 0.14%); format: functional
[24] = Drug accumulation in human KB cells at 10 uM incubated for 4 hrs by LC-MS/MS analysis; format: ADME, cell-based
[25] = Induction of Ptx-mediated cell cycle arrest in human KBV cells assessed as accumulation of cells at G2-M phase at 5 uM incubated for 24 hrs in presence of paclitaxel by flow cytometry analysis (Rvb =25.34 +/- 0.92%); format: functional
[26] = Induction of cell cycle arrest in human KBV cells assessed as accumulation of cells at Sub-G1 phase at 5 uM incubated for 24 hrs by flow cytometry analysis (reference value: 1.24 +/- 0.14%); format: functional
[27] = target: T1, ATP-dependent translocase ABCB1; test: Negative allosteric modulator activity at P-glycoprotein in human KBV cells assessed as effect on P-gp protein expression level at 10 uM incubated for 72 hrs by Western blotting analysis; format: cell-based
[28] = target: Multidrug resistance-associated protein 1 (Homo sapiens, UniProt P33527); test: Binding affinity to ABCC1 in human KBV cells assessed as stabilization of ABCC1 at 50 uM incubated for 26 hrs by western blot based cellular thermal shift assay; format: cell-based
[29] = Reversal of multidrug resistance in human KBV Cells assessed as reversal fold of paclitaxel IC50 at 10 uM incubated for 72 hrs in presence of paclitaxel by MTT assay; format: functional

T1 sequence (P08183 whole entry): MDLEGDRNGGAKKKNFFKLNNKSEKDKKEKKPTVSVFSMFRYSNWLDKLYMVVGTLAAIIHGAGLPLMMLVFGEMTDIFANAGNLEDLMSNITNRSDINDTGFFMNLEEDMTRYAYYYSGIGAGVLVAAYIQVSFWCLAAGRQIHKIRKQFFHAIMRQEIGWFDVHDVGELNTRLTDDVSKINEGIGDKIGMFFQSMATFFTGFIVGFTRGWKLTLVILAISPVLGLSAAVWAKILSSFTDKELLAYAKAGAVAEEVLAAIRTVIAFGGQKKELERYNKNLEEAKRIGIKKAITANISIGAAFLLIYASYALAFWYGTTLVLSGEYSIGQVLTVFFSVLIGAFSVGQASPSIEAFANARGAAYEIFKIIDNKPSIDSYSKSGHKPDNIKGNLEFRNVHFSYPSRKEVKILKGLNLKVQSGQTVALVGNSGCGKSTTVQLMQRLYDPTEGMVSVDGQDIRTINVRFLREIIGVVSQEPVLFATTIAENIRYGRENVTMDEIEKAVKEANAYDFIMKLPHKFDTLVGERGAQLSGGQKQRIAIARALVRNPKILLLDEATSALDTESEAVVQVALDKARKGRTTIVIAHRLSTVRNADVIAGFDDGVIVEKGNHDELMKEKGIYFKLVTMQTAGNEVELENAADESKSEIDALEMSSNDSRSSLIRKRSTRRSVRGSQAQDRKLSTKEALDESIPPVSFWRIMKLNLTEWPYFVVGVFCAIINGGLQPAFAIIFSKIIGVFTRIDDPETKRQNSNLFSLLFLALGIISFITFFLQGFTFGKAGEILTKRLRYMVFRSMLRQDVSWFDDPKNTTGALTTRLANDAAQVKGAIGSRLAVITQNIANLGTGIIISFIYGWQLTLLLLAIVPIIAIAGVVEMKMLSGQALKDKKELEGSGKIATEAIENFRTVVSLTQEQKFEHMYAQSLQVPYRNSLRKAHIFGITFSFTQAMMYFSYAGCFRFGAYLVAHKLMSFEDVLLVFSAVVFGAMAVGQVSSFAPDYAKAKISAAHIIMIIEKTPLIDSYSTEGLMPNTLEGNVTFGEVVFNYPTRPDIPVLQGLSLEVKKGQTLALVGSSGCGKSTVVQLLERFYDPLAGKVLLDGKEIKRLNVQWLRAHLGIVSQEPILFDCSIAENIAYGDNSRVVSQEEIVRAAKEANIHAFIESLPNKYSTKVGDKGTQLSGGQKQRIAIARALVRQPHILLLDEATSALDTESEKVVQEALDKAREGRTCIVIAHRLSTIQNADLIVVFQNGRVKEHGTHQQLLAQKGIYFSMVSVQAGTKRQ
T2 sequence (P08183 whole entry): as above
Multidrug resistance-associated protein 1, sequence (P33527 whole entry): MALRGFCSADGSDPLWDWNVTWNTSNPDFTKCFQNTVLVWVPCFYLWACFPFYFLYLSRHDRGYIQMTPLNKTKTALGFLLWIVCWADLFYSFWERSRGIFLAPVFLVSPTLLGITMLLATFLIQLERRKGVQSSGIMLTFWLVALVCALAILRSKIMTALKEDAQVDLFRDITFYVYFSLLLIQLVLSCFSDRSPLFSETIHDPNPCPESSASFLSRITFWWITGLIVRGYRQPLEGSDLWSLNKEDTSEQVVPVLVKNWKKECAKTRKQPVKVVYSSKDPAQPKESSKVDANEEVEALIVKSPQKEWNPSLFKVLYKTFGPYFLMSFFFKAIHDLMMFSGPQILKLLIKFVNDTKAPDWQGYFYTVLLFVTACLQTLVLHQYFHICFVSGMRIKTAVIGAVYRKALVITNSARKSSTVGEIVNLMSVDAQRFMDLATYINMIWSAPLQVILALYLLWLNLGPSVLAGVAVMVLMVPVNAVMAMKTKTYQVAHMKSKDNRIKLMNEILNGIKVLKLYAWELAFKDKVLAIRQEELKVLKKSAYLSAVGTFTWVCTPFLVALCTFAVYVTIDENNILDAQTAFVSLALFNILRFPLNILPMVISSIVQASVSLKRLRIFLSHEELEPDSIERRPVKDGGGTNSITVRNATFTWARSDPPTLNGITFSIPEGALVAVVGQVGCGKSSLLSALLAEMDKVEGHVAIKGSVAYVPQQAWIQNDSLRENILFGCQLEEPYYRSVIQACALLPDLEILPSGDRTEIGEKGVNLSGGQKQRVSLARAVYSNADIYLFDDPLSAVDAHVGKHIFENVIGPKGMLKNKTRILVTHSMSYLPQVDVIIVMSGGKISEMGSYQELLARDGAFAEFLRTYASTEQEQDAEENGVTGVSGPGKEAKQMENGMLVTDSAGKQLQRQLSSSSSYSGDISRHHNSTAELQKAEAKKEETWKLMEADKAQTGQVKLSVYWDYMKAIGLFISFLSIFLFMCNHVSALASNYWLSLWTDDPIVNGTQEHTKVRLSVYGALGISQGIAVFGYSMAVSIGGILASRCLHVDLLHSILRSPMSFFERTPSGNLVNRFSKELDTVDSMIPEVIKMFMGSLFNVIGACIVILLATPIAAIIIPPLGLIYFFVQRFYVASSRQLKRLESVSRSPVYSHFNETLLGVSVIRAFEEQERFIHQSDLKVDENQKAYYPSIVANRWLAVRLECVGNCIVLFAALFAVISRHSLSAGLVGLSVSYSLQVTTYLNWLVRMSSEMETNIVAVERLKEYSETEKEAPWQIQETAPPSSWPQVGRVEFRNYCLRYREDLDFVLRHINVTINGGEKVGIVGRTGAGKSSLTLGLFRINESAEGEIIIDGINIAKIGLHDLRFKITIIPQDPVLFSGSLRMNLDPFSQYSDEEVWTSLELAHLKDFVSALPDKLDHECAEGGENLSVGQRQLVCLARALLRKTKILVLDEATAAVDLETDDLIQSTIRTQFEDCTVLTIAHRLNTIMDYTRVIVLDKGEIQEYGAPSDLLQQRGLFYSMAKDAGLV

Compound: CC(C)(O)[C@H]1CC[C@@](C)([C@H]2CC[C@]3(C)[C@@H]2[C@H](O)C[C@@H]2[C@@]4(C)CC[C@H](NC(=O)[C@@H]5CCCN5)C(C)(C)[C@@H]4CC[C@]23C)O1
- Activity [1]: 22%
- Activity [2]: 20.53%
- Activity (KBV): inactive
- Activity [3]: Not Active
- inhibition at 1 h (P-gp (ABCB1) ATPase [4]): 13%
- Activity [5]: 8.58%
- inhibition at 1 h (P-gp (ABCB1) ATPase [6]): 40%
- Activity [7]: Active
- Activity [8]: Dose-Dependent Effect
- Activity [9]: 36.65%
- Activity [10]: 13.74%
- Activity [11]: 27.12%
- inhibition (INH) [12]: Not Active
- Activity [13]: 59.58%
- viability at 5 µM [14]: 34%
- fold change (FC) [15]: 21
- Activity [16]: 25.93%
- Activity [17]: 11.4%
- inhibition in vivo at 20 mg/kg [18]: 58.1%
- viability at 10 µM [19]: 30%
- Activity [20]: Not Active
- Activity [21]: 42.21%
- Drug uptake [22]: Active
- Activity [23]: 1%
- Drug uptake [24]: Active
- Activity [25]: 31.28%
- Activity [26]: 0.58%
- Activity [27]: Not Active
- Activity [28]: Not Active
- fold change (FC) [29]: 67

— ChEMBL document CHEMBL5331114, “Discovery of Pyxinol Amide Derivatives Bearing Amino Acid Residues as Nonsubstrate Allosteric Inhibitors of P-Glycoprotein-Mediated Multidrug Resistance” (J Med Chem, 2023)
